Values of other authors in patent US20080103154A1, “3, 4-dihydro-2(IH)-quinolinone and 2(1H)-quinolinone derivatives” (Concert Pharmaceuticals Inc., priority 2006, published 2008).

Experiments:
[1] = not given; remark: listed apart in the source
5-HT2A = 5-HT2A (Homo sapiens, UniProt P28223); settings: transfected cell lines expressing rat and human receptors
H1 receptors = H1 receptors (Homo sapiens, UniProt P35367); settings: transfected cell lines expressing rat and human receptors
5-HT1A = target: T1, 5-HT1A (Homo sapiens, UniProt P08908); settings: transfected cell lines expressing rat and human receptors
T1 sequence (P08908 1-422): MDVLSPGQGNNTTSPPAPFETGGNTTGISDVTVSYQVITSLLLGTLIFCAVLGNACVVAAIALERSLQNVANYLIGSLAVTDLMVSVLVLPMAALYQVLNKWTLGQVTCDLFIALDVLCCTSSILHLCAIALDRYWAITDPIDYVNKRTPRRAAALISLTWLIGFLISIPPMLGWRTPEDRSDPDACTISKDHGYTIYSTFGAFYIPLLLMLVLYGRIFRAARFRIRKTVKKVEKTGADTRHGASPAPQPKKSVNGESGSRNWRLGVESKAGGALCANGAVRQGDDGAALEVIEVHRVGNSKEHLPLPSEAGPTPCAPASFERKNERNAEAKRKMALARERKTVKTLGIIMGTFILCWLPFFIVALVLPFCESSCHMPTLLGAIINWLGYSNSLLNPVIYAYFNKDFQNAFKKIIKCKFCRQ

α1 = settings: transfected cell lines expressing rat and human receptors
5-HT2C = target: T2, 5-HT2C (Homo sapiens, UniProt P28335); settings: transfected cell lines expressing rat and human receptors
T2 sequence (P28335 33-458): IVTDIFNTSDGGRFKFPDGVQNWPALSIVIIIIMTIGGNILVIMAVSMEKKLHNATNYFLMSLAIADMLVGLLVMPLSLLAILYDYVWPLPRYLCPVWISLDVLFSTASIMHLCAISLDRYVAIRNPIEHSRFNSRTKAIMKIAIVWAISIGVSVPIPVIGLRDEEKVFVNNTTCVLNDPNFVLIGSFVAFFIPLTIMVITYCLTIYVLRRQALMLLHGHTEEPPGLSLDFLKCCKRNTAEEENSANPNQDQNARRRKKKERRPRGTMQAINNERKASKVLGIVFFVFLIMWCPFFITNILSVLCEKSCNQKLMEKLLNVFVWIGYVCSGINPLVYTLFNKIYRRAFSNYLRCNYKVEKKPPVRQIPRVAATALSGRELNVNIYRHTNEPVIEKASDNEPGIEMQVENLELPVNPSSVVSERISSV

Chain of 5-HT2A (P28223 whole entry): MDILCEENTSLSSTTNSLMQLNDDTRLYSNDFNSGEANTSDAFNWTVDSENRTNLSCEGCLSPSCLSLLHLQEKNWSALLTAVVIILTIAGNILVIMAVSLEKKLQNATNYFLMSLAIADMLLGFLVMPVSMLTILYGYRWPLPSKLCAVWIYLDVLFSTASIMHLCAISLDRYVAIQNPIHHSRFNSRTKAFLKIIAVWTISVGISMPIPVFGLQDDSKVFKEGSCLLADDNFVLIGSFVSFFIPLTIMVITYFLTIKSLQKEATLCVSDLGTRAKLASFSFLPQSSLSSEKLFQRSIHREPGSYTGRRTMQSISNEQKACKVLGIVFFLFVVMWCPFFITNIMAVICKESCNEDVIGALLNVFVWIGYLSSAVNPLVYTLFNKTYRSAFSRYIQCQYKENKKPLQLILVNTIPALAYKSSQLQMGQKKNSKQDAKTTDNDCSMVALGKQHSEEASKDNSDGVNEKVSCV
Chain of H1 receptors (P35367 whole entry): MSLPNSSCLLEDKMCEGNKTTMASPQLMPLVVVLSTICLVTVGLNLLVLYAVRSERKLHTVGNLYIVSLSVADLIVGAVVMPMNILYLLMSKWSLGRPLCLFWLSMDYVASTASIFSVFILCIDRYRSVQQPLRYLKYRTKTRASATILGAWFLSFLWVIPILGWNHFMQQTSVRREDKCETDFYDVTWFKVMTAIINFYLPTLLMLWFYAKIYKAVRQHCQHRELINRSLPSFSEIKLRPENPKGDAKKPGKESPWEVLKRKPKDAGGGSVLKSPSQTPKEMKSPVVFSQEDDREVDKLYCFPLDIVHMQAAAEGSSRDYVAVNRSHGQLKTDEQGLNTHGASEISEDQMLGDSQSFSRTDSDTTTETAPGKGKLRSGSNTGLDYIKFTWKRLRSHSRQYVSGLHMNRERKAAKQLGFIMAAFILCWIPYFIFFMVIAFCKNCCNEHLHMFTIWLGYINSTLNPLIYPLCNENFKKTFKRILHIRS

Row | Compound | share of activity accounted for by metabolite (humans) [%] | potency relative to aripiprazole (metabolite of aripiprazole) | metabolism ([1]; humans) | absorption ([1]; oral administration in humans) | absolute oral bioavailability ([1]; oral formulation, humans) [%] | affinity binding to 5-HT2A (5-HT2A) | affinity to H1 receptors (H1 receptors) | affinity binding to 5-HT1A (5-HT1A) | affinity to α1 (α1) | affinity to 5-HT2C (5-HT2C)
1 | O=c1ccc2ccc(OCCCCN3CCN(c4cccc(Cl)c4Cl)CC3)cc2[nH]1 [dehydroaripiprazole] | 20 | equipotent with aripiprazole | – | – | – | – | – | – | – | –
2 | O=C1CCc2ccc(OCCCCN3CCN(c4cccc(Cl)c4Cl)CC3)cc2N1 [Aripiprazole] | – | – | extensively metabolized | well absorbed | 87 | high affinity | moderate affinity | high affinity | moderate affinity | moderate affinity
